Assays:
[1] = tested on: CPI-17; test: CPI-17 phosphorylation in electrically stimulated beating left atria; type: cell-based, guinea-pig
Description: (§1) Protein extraction and Western blotting analysis. Briefly, after incubation with test agents in an organ bath, isolated beating atrium was frozen and pulverized to a fine powder at the temperature of liquid nitrogen. Atrium powders were then homogenized in protein extraction reagent (Pierce Biotechnology, Inc., Rockford, Ill.) by sonication. The samples were sonicated 10 sec three times and centrifuged at 13,000 rpm at 4° C. for 30 min. The protein concentrations of supernatants were determined by using bovine serum albumin as the standard. The cell extracts were then boiled in a ratio of 4:1 with sample buffer (Tris 100 mM, pH 6.8; glycerol 20%, Sodium dodecyl sulfate (SDS) 4% and bromophenol blue 0.2%). Electrophoresis was performed using 10% SDS-PAGE and transferred to nitrocellulose membranes (Millipore Corp., Billerica, Mass.). […] The intensity of the bands was measured by densitometry. eNOS or phosphorylated eNOS were extracted from cell culture of neonatal myocytes, PA ring and aortic ring (2-3 mm) of rats and measured by Western blotting analysis.
PK, ROCKII and CIP-17 expression and pretreatment of beating left atrium. To examine whether KMUP-3 or KMUP-3 amine salt affects the protein expression in beating atrium, PKA, ROCKII, PKG and phosphorylated CIP-17 was determined by Western blotting, respectively. […]

[2] = tested on: eNOS; test: eNOS expression in neonatal myocytes, Western blotting; type: cell-based, rat; conditions: neonatal rat cardiomyocytes
Description: (§2) eNOS/p-NOS and cAMP/cGMP in neonatal myocytes. To determine the role of the NO/cGMP-pathway in heart, neonatal rat myocyte protein was extracted followed by Western blotting to measure the expression of eNOS, phosphorylated eNOS (p-eNOS), cAMP, and cGMP (FIG. 14 A-14 B and FIG. 15 A-15 B). KMUP-3 increased eNOS and p-eNOS in neonatal rat cardiomyocytes and the effect was reduced by L-NAME (100 μM)-pretreatment (FIG. 14A and FIG. 14B). KMUP-3 increased both cAMP and cGMP.
as §1, with “standard.” for “standard. The cell extracts were then boiled in a ratio of 4:1 with sample buffer (Tris 100 mM, pH 6.8; glycerol 20%, Sodium dodecyl sulfate (SDS) 4% and bromophenol blue 0.2%). Electrophoresis was performed using 10% SDS-PAGE and transferred to nitrocellulose membranes (Millipore Corp., Billerica, Mass.).”

[3] = tested on: PKCα; test: PKCα translocation of beating left atrium; type: cell-based, guinea-pig; conditions: KMUP-3 1 μM, left atrium cells
Description: To determine the effect of KMUP-3 or KMUP-3 amine salt on PKCa translocation, isolated left beating atrium was incubated with KMUP-3 or KMUP-3 amine salt for 30 minutes (0.1-10 μM). In brief, frozen left atrium was pulverized to a fine powder at the temperature of liquid nitrogen for preparation of cytosolic and membrane fractions. Isolated left atrium tissues were then homogenized by a sonicator (XL-2020, Heat Systems Ultrasonic, Plainview, N.Y., USA) at 4 in 1 ml of homogenization buffer containing 20 mM Tris-HCl (pH 7.5), 1 mM dithiothreitol (DTT), 5 mM EGTA, 2 mM EDTA, 0.5 mM PMSF, 20 μM leupeptin and 20 μM aprotinin. The cytosol fractions were obtained by collecting the supernatants after centrifuging the cells at 100,000×g for 45 minutes at 4. The pellets were resonicated in the homogenizing buffer with 1% Triton X-100, centrifuged again at 100,000×g for 45 minutes at 4, and the supernatants collected as membrane fractions. The extracts for cytosol and membrane fractions were denatured by heating at for 10 minutes in sampling buffer, and an aliquot containing 20 μg of total protein was subjected to a 10% SDS-polyacrylamide gel electrophoresis. […] Protein was detected with horseradish peroxidase (HRP) conjugated secondary antibody (BD Transduction Laboratories). […] The immunoreactive bands were detected by chemiluminescence (ECL) reagents (PerkinElmer Life Sciences, Inc).

[4] = tested on: cGMP; test: cGMP in neonatal myocytes; type: cell-based, rat
Description: as §2

[5] = tested on: RhoA; test: RhoA activation of neonatal myocytes, affinity precipitation assay; type: cell-based, rat
Description: RhoA activation was determined using an affinity precipitation assay, which binds only the active GTP-bound form of Rho. In brief, sub-confluent neonatal rat myocytes were grown to approximately 85-90% confluence, cells were exposed to KMUP-3 or KMUP-3 amine salt with 10% FBS for 90 min at 37 before addition of lysis buffer (25 mM HEPES, pH 7.5, 150 mM NaCl, 1% Igepal CA-630, 10 mM MgCl2, 1 mM EDTA and 10% glycerol, 1 Ag/ml aprotinin, 10 Ag/ml leupeptin and 1 mmol/l […]) for 15 min at 4, cell lysates were clarified by centrifugation at 13000 g at 4 for 10 min, and equal volume of lysates were incubated with agarose conjugated rhotekin-RBD for 45 min at 4, then washed three time with lysis buffer. Agarose beads were boiled in SDS-PAGE sample buffer to release active RhoA in samples were resolved on a 12% polyacrylamide gel followed by immunoblotting with anti-Rho A (clone 55).

[6] = tested on: L-type Ca2+ channels; test: Ca2+ entry currents in H9c2 cells, whole cell patch-clamp; type: cell-based, rat; conditions: H9c2 cells, KMUP-3 1-100 μM
Description: To measure the ICa through L-type Ca^2+ channels, whole cell patch-clamp electrophysiology was used in rat heart-derived H9c2 cells as previously described. In brief, H9c2 cells were placed in a recording dish and perfused with a bath solution containing (in mM): 135 tetraethylammonium (TEA)-Cl, 1.8 CaCl2, 2 MgCl2, 10 glucose, and 10 HEPES (pH 7.4, Tris). […] Negative pressure was briefly applied to rupture the membrane and a gigaohm seal was obtained.
H9c2 cells were clamped at −80 mV with step depolarizations (300 ms) from −80 to 0 mV to evoke whole-cell ICa. Voltage clamped cells were equilibrated for 15 min prior to experimentation. Membrane currents were recorded on an Axopatch 700A amplifier (Axon Instruments, Union City, Calif.), filtered at 1 kHz using a low-pass Bessel filter, digitized at 5 kHz and stored on a computer for subsequent analysis with Clampfit 9.0. Following equilibration, ICa was monitored in the presence and absence of KMUP-3 or KMUP-3 amine salt (1, 10, 100 μM). To ascertain whether PKG or ROCK signaling was involved in the KMUP-3-induced decreases in ICa, H9c2 cells were incubated for 15 min with the combination of KMUP-3 or KMUP-3 amine salt (10 μM) and PKG antagonist KT5823 (3 μM) or ROCK inhibitor Y-27632 (50 μM). All electrical recordings were performed at room temperature.

Cn1c(=O)c2c(ncn2CCN2CCN(c3ccc([N+](=O)[O-])cc3)CC2)n(C)c1=O [KMUP-3, 7-[2-[4-(4-nitrobenzene)piperazinyl]ethyl]-1,3-dimethylxanthine]
Phosphorylation of CPI-17 [1]: concentration-dependently increased | eNOS expression [2]: increased | Translocation of PKCα from cytosol to membrane [3]: significantly increased | cGMP [4]: increased | cGMP increase compared with cAMP increase [4]: increased more than the former | Rho A activation (active GTP-bound form) [5]: increased | Inward currents (Ca2+ entry) [6]: concentration-dependently reduced

From patent US20120321584A1, “PROCESSES FOR PREPARING AMINE SALTS OF KMUP-3 AND USE THEREOF” (KAOHSIUNG MEDICAL UNIVERSITY, priority 2011, published 2012)
